From PMC7099627, “Design, synthesis, heme binding and density functional theory studies of isoindoline-dione-4-aminoquinolines as potential antiplasmodials” (Future Medicinal Chemistry, 2019) come the findings set out here.

Data set [1] deals with chloroquine-resistant W2 strain of Plasmodium falciparum. The data set can be described thus: Antiplasmodial activity, growth inhibition by flow cytometry. It counts as cell-based. As for the experimental part:
The compounds were added from DMSO stocks; the maximum concentration of DMSO used was 0.1%. Controls without inhibitors included 0.1% DMSO. […] Fixed parasites were then transferred to 0.1% Triton X-100 in phosphate-buffered saline containing 1 nM YOYO-1 dye (Molecular Probes, MA, USA). Parasitemia was determined from dot plots (forward scatter vs fluorescence) acquired on a FACSort flow cytometer using Cell Quest software (Beckton Dickinson, NJ, USA). IC50 values for growth inhibition were determined from plots of percent control parasitemia over inhibitor concentration using the Prism 5.0 program (GraphPad Software, CA, USA), with data from duplicate experiments fitted by nonlinear regression.
The synthesized C4/C5substituted-isoindoline-1,3-diones-4-aminoquinolines were screened for their antiplasmodial activity against CQR (W2) strain of P. falciparum (Table 1).

Data set [2] concerns Vero cells. The experiment in a line: Cytotoxicity assay (resazurin cell viability). The class given is cell-based. To be noted: for SI (selectivity index): Vero cytotoxicity vs W2 antiplasmodial IC50. As for the experimental part:
(§1) Cell viability was determined using Vero cells (ATCC, Sigma, Munich, Germany), which were grown in RPMI medium (Gibco) supplemented with 10% decomplemented fetal calf serum under 5% CO2 atmosphere.

Data set [3] in a line: Cytotoxicity assay (resazurin cell viability). The class given is cell-based. The settings on record: African green monkey; mammalian Vero cells, 24 h incubation, resazurin. The protocol:
as §1

Data set [4] is described as follows: Heme-binding spectrophotometric titration (HypSpec). To be noted: 40% aq. DMSO, heme 12 μM.
Procedure: The resultant 40% DMSO solutions maintain the hematin solutions in the monomeric state at concentrations used. […] All the working solutions were kept in dark to avoid photo-sensitivity. Diluent solutions were prepared by dissolving 1 mL of 0.02 M HEPES and 4 mL of spectroscopic grade DMSO and made up to a final volume of 10 mL with ultrapure, HPLC grade Hipersolv water.
The mark [5] stands for this setting: chloroquine-resistant W2 strain, 48 h incubation, read-out: IC50.
[6] abbreviates: Plasmodium falciparum, W2, 48 h, chloroquine-resistant W2 strain, 48 h incubation, read-out: IC50.
Where [7] appears, read: mammalian Vero cells, 24 h incubation, resazurin, read-out: IC50 (μM cytotoxicity).
[8] abbreviates: Plasmodium falciparum, W2, chloroquine-resistant W2 strain, Figure 1, read-out: IC50.

Structures are written as SMILES. Read-outs that look alike come from different tables or passages of the source.

Consider `O=C1c2cccc(N3CCCCC3)c2C(=O)N1CCNc1ccnc2cc(Cl)ccc12` [4a], for which the figures for the IC50 in data set [1] (setting [5]) and in data set [2] were 158 nM and below 28.8 µM, respectively.

Regarding `O=C1c2cccc(N3CCCCC3)c2C(=O)N1CCCNc1ccnc2cc(Cl)ccc12` [4b], the half-maximal inhibitory concentration (IC50) in data set [1] (setting [6]) stood at 162 nM; in data set [2] (setting [7]), 55.8 µM. Besides, the “SI (selectivity index)” value in data set [2] amounted to 344.4.

`O=C1c2cccc(N3CCCCC3)c2C(=O)N1CCCCNc1ccnc2cc(Cl)ccc12` [4c, 2-(4-((7-chloroquinolin-4-yl)amino)butyl)-4-(piperidin-1-yl)isoindoline-1,3-dione]: the concentration for half-maximal inhibition (IC50) came to 50 nM in data set [1] (setting [6]), 51 nM in data set [1] (setting [5]) and 54.1 µM in data set [2] (setting [7]). Besides, in data set [2], the “SI (selectivity index)” value is 1060.7.

Turning to `O=C1c2cccc(N3CCCCC3)c2C(=O)N1CCCCCCNc1ccnc2cc(Cl)ccc12` [4d, 2-(6-((7-chloroquinolin-4-yl)amino)hexyl)-4-(piperidin-1-yl)isoindoline-1,3-dione], the values for the IC50 in data set [1] (setting [6]) and in data set [2] (setting [7]) were 75 nM and 204 µM, respectively. The “SI (selectivity index)” value in data set [2] is listed as 2720.

Take `O=C1c2ccc(N3CCCCC3)cc2C(=O)N1CCNc1ccnc2cc(Cl)ccc12` [4e]: the IC50 in data set [1] (setting [5]) is 163 nM; in data set [2] it was below 28.8 µM.

For the compound `O=C1c2ccc(N3CCCCC3)cc2C(=O)N1CCCNc1ccnc2cc(Cl)ccc12` [4f, 2-(3-((7-chloroquinolin-4-yl)amino)propyl)-5-(piperidin-1-yl)isoindoline-1,3-dione], the IC50 in data set [1] (setting [6]) is 176 nM; in data set [2] (setting [7]), 55.8 µM. In addition, the “SI (selectivity index)” value in data set [2] is 317.

As to `O=C1c2ccc(N3CCCCC3)cc2C(=O)N1CCCCNc1ccnc2cc(Cl)ccc12` [4g], the IC50 in data set [1] (setting [6]) worked out at 77 nM. For the same compound, the IC50 at 24 h in data set [3] is below 27 µM.

On to `O=C1c2ccc(N3CCCCC3)cc2C(=O)N1CCCCCCNc1ccnc2cc(Cl)ccc12` [4h], for which the IC50 in data set [1] (setting [5]) was 123 nM; in data set [2], below 25.5 µM.

Take `O=C1c2cccc(N3CCOCC3)c2C(=O)N1CCNc1ccnc2cc(Cl)ccc12` [4i]: the IC50 in data set [1] (setting [6]) was 180 nM. Besides, the half-inhibitory concentration (IC50) at 24 h in data set [3] is below 28.6 µM.

Regarding `O=C1c2cccc(N3CCOCC3)c2C(=O)N1CCCNc1ccnc2cc(Cl)ccc12` [4j], the values for the IC50 in data set [1] (setting [6]) and in data set [2] (setting [7]) were 276 nM and 222 µM, respectively. Also, the “SI (selectivity index)” value in data set [2] worked out at 805.

In the case of `O=C1c2cccc(N3CCOCC3)c2C(=O)N1CCCCNc1ccnc2cc(Cl)ccc12` [4k, 2-(4-((7-chloroquinolin-4-yl)amino)butyl)-4-morpholinoisoindoline-1,3-dione], the values for the IC50 in data set [1] (setting [6]) and in data set [2] (setting [7]) were 71 nM and 108 µM, respectively. The “SI (selectivity index)” value in data set [2] is 1517.

For `O=C1c2cccc(N3CCOCC3)c2C(=O)N1CCCCCCNc1ccnc2cc(Cl)ccc12` [4l], the values for the concentration for half-maximal inhibition (IC50) in data set [1] (setting [6]) and in data set [2] (setting [7]) were 25 nM and 50.8 µM, respectively.

For `O=C1c2ccc(N3CCOCC3)cc2C(=O)N1CCNc1ccnc2cc(Cl)ccc12` [4m, 2-(2-((7-chloroquinolin-4-yl)amino)ethyl)-5-morpholinoisoindoline-1,3-dione], the IC50 in data set [1] (setting [6]) came out at 370 nM. Besides, the concentration for half-maximal inhibition (IC50) at 24 h in data set [3] was below 28.6 µM.

Turning to `O=C1c2ccc(N3CCOCC3)cc2C(=O)N1CCCNc1ccnc2cc(Cl)ccc12` [4n], the IC50 in data set [1] (setting [6]) was determined as 118 nM; in data set [2] (setting [7]), 222 µM. For the same compound, the “SI (selectivity index)” value in data set [2] is recorded as 1883.

As for `O=C1c2ccc(N3CCOCC3)cc2C(=O)N1CCCCNc1ccnc2cc(Cl)ccc12` [4o, 2-(4-((7-chloroquinolin-4-yl)amino)butyl)-5-morpholinoisoindoline-1,3-dione], in data set [1] (setting [6]), the IC50 turned out to be 49 nM. The IC50 at 24 h in data set [3] is below 26.9 µM.

In the case of `O=C1c2ccc(N3CCOCC3)cc2C(=O)N1CCCCCCNc1ccnc2cc(Cl)ccc12` [4p], the IC50 in data set [1] (setting [6]) came to 19 nM. This compound also gave a concentration for half-maximal inhibition (IC50) at 24 h in data set [3] below 25.4 µM.

As for `O=C1c2ccc(N3CCN(CCO)CC3)cc2C(=O)N1CCNc1ccnc2cc(Cl)ccc12` [4q], the IC50 in data set [1] (setting [6]) is 44 nM. Besides, in data set [3], the IC50 at 24 h is below 26 µM.

As to `O=C1c2ccc(N3CCN(CCO)CC3)cc2C(=O)N1CCCNc1ccnc2cc(Cl)ccc12` [4r, 2-(3-((7-chloroquinolin-4-yl)amino)propyl)-5-(4-(2-hydroxyethyl)piperazin-1-yl)isoindoline-1,3-dione], the IC50 in data set [1] (setting [8]) was found to be 6.6 nM; in data set [1] (setting [5]) it was 6 nM. Moreover, the “activity relative to CQ (fold higher)” value in data set [1] (antiplasmodial activity vs CQ) is around 12 fold. The compound further gave an IC50 at 24 h in data set [3] below 25.3 µM. Besides, the “Monomeric Heme log K” value in data set [4] (pH 5.6 (MES buffer)) is reported as 5.41; in data set [4] (pH 7.4 (HEPES buffer)), 5.14.

With `O=C1c2ccc(N3CCN(CCO)CC3)cc2C(=O)N1CCCCNc1ccnc2cc(Cl)ccc12` [4s, 2-(4-((7-chloroquinolin-4-yl)amino)butyl)-5-(4-(2-hydroxyethyl)piperazin-1-yl)isoindoline-1,3-dione], in data set [1] (setting [6]), the IC50 turned out to be 14 nM. The IC50 at 24 h in data set [3] was below 24.6 µM.

Regarding `O=C1c2ccc(N3CCN(CCO)CC3)cc2C(=O)N1CCCCCCNc1ccnc2cc(Cl)ccc12` [4t], the IC50 in data set [1] (setting [6]) amounted to 15 nM. Further, the IC50 at 24 h in data set [3] was below 23.3 µM.

On to `C[C@@H]1CC[C@H]2[C@@H](C)C(=O)O[C@@H]3O[C@@]4(C)CC[C@@H]1[C@]32OO4` [ART, Artemisinin, reference compound], for which the IC50 in data set [1] (setting [6]) is 5 nM; in data set [1] (setting [8]), 5.3 nM.

Take `CCN(CC)CCCC(C)Nc1ccnc2cc(Cl)ccc12` (stereo not shown) [CQ, Chloroquine, reference compound]: the midpoint of inhibition in data set [1] (Plasmodium falciparum, W2, 48 h), the IC50, lay at 79 nM.
